Reference: patent US7300946B2, “N-(substituted arylmethyl)-4-(disubstituted methyl) piperidines and pyridines” (Bayer CropScience AG, priority 2002, dated 2007)

System: tobacco budworm (Heliothis virescens [Fabricius])
Assay: surface-treated diet test against the tobacco budworm
Assay type: in vivo
Details: tobacco budworm second instar larvae, surface-treated diet, 0.25 millimoles of candidate insecticide on the surface of the diet, five-day exposure; for Percent Mortality: compared to total number of insects infested; for Percent Growth Inhibition: inhibition of insect weight relative to untreated controls
Summary of the method: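 Wheat germ artificial diet surface-treated with 40 µL of 50 mM DMSO stock diluted 1:7 in 1:1 water/acetone (0.25 millimolar on diet), or sub-multiples for rate tests. One second-instar larva per well, 25° C, 60% RH, 5 days; percent weight inhibition vs DMSO controls and percent mortality.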

| Structure (SMILES) | Percent Mortality [%] | Percent Growth Inhibition [%] |
| --- | --- | --- |
| COc1ccc(NC(=O)NC(c2ccc(OC(F)(F)F)cc2)C2CCN(Cc3ccc(-c4nnn(C)n4)cc3)CC2)cc1 (stereo not drawn) [Compound 343] | 100 | 100 |
| Cn1nnc(-c2ccc(CN3CCC(C(NC(=O)Nc4ccc(C(F)(F)F)cc4)c4ccc(OC(F)(F)F)cc4)CC3)cc2)n1 (stereo not drawn) [Compound 344] | 100 | 100 |
| Cn1nnc(-c2ccc(CN3CCC(C(NC(=O)Nc4ccc(OC(F)(F)F)cc4)c4ccc(OC(F)(F)F)cc4)CC3)cc2)n1 (stereo not drawn) [Compound 345] | 100 | 100 |
| Cn1nnc(-c2ccc(CN3CCC(C(NC(=O)Nc4ccc([N+](=O)[O-])cc4)c4ccc(OC(F)(F)F)cc4)CC3)cc2)n1 (stereo not drawn) [Compound 346] | 100 | 100 |
| Cn1nnc(-c2ccc(CN3CCC(C(NC(=O)Oc4ccccc4Cl)c4ccc(OC(F)(F)F)cc4)CC3)cc2)n1 (stereo not drawn) [Compound 347] | 83 | 100 |
| Cn1nnc(-c2ccc(CN3CCC(C(NC(=O)Oc4cccc(Cl)c4)c4ccc(OC(F)(F)F)cc4)CC3)cc2)n1 (stereo not drawn) [Compound 348] | 100 | 100 |
| Cn1nnc(-c2ccc(CN3CCC(C(NC(=O)Oc4ccc(Cl)cc4)c4ccc(OC(F)(F)F)cc4)CC3)cc2)n1 (stereo not drawn) [Compound 349] | 100 | 100 |
| Cn1nnc(-c2ccc(CN3CCC(C(NC(=O)Oc4ccc(Br)cc4)c4ccc(OC(F)(F)F)cc4)CC3)cc2)n1 (stereo not drawn) [Compound 350] | 100 | 100 |
| Cn1nnc(-c2ccc(CN3CCC(C(NC(=O)Oc4ccccc4F)c4ccc(OC(F)(F)F)cc4)CC3)cc2)n1 (stereo not drawn) [Compound 351] | 50 | 100 |
| Cn1nnc(-c2ccc(CN3CCC(C(NC(=O)Oc4cccc(F)c4)c4ccc(OC(F)(F)F)cc4)CC3)cc2)n1 (stereo not drawn) [Compound 352] | 83 | 100 |
| Cn1nnc(-c2ccc(CN3CCC(C(NC(=O)Oc4ccc(F)cc4)c4ccc(OC(F)(F)F)cc4)CC3)cc2)n1 (stereo not drawn) [Compound 353] | 17 | 87 |
| Cn1nnc(-c2ccc(CN3CCC(C(NC(=O)Oc4ccc(I)cc4)c4ccc(OC(F)(F)F)cc4)CC3)cc2)n1 (stereo not drawn) [Compound 354] | 100 | 100 |
| Cc1ccc(OC(=O)NC(c2ccc(OC(F)(F)F)cc2)C2CCN(Cc3ccc(-c4nnn(C)n4)cc3)CC2)cc1 (stereo not drawn) [Compound 355] | 100 | 100 |
| COc1ccc(OC(=O)NC(c2ccc(OC(F)(F)F)cc2)C2CCN(Cc3ccc(-c4nnn(C)n4)cc3)CC2)cc1 (stereo not drawn) [Compound 356] | 100 | 100 |
| Cn1nnc(-c2ccc(CN3CCC(C(NC(=O)Oc4ccc(OC(F)(F)F)cc4)c4ccc(OC(F)(F)F)cc4)CC3)cc2)n1 (stereo not drawn) [Compound 357] | 100 | 100 |
| Cn1nnc(-c2ccc(CN3CCC(C(NC(=O)Oc4ccc([N+](=O)[O-])cc4)c4ccc(OC(F)(F)F)cc4)CC3)cc2)n1 (stereo not drawn) [Compound 358] | 83 | 99 |
| O=C(Nc1ccc(Cl)cc1)OC(c1ccc(C(F)(F)F)cc1)C1CC[N+]([O-])(Cc2ccc(Oc3ccccn3)cc2)CC1 (stereo not drawn) [Compound 395, N-(4-chlorophenyl)({1-[(4-(2-pyridyloxy)phenyl)methyl](4-(1-oxypiperidyl))}[4-(trifluoromethyl)phenyl]methoxy)carboxamide] | 100 | 100 |

| Structure (SMILES) | Percent Mortality [%] | Percent Growth Inhibition [%] |
| --- | --- | --- |
| O=C(Nc1ccc(Cl)c(Cl)c1)OC(c1ccc(C(F)(F)F)cc1)C1CC[N+]([O-])(Cc2ccc(Oc3ccccn3)cc2)CC1 (stereo not drawn) [Compound 396] | 100 | 100 |
| O=C(Nc1cc(F)cc(F)c1)OC(c1ccc(C(F)(F)F)cc1)C1CC[N+]([O-])(Cc2ccc(Oc3ccccn3)cc2)CC1 (stereo not drawn) [Compound 397] | 100 | 100 |
| O=C(Nc1ccc(C(F)(F)F)cc1)OC(c1ccc(C(F)(F)F)cc1)C1CC[N+]([O-])(Cc2ccc(Oc3ccccn3)cc2)CC1 (stereo not drawn) [Compound 398] | 100 | 100 |
| Cn1nnc(-c2ccc(C[N+]3([O-])CCC(C(OC(=O)Nc4ccc(Cl)cc4)c4ccc(OC(F)(F)F)cc4)CC3)cc2)n1 (stereo not drawn) [Compound 399] | 100 | 100 |
| Cn1nnc(-c2ccc(C[N+]3([O-])CCC(C(OC(=O)Nc4ccc(F)cc4)c4ccc(OC(F)(F)F)cc4)CC3)cc2)n1 (stereo not drawn) [Compound 400] | 100 | 100 |
| CCn1nnc(-c2ccc(C[N+]3([O-])CCC(C(OC(=O)Nc4ccc(F)cc4)c4ccc(OC(F)(F)F)cc4)CC3)cc2)n1 (stereo not drawn) [Compound 401] | 100 | 100 |
| Cn1nnc(-c2ccc(C[N+]3([O-])CCC(C(OC(=O)Nc4ccc(C(F)(F)F)cc4)c4ccc(OC(F)(F)F)cc4)CC3)cc2)n1 (stereo not drawn) [Compound 402] | 100 | 100 |
| Cn1nnc(-c2ccc(C[N+]3([O-])CCC(C(OC(=O)Nc4ccc(OC(F)(F)F)cc4)c4ccc(OC(F)(F)F)cc4)CC3)cc2)n1 (stereo not drawn) [Compound 404] | 100 | 100 |
| CCn1nnc(-c2ccc(C[N+]3([O-])CCC(C(OC(=O)Nc4ccc(OC(F)(F)F)cc4)c4ccc(OC(F)(F)F)cc4)CC3)cc2)n1 (stereo not drawn) [Compound 405] | 100 | 100 |
| CCCNC(=O)OC(c1ccc(C(F)(F)F)cc1)C1CCN(Cc2ccc(Oc3ccccn3)cc2)CC1 (stereo not drawn) [Compound 427] | 33 | 100 |
| CC(C)NC(=O)OC(c1ccc(C(F)(F)F)cc1)C1CCN(Cc2ccc(Oc3ccccn3)cc2)CC1 (stereo not drawn) [Compound 429] | 100 | 100 |
| O=C(NC1CCCCC1)OC(c1ccc(C(F)(F)F)cc1)C1CCN(Cc2ccc(Oc3ccccn3)cc2)CC1 (stereo not drawn) [Compound 432] | 100 | 100 |
| CCCS(=O)(=O)NC(c1ccc(OC(F)(F)F)cc1)C1CCN(Cc2ccc(-c3nnn(C)n3)cc2)CC1 (stereo not drawn) [Compound 433, [(1-{[4-(2-methyl(1,2,3,4-tetraazol-5-yl))phenyl]methyl}(4-piperidyl))[4-(trifluoromethoxy)phenyl]methyl]propylsulfonylamide] | 100 | 100 |
| Cn1nnc(-c2ccc(CN3CCC(C(Oc4ccc(C(F)(F)F)cn4)c4ccc(OC(F)(F)F)cc4)CC3)cc2)n1 (stereo not drawn) [Compound 434, 2-[(1-{[4-(2-methyl(1,2,3,4-tetraazol-5-yl))phenyl]methyl}(4-piperidyl))[4-(trifluoromethoxy)phenyl]methoxy]-5-(trifluoromethyl)pyridine] | 100 | 100 |
| Cn1nnc(-c2ccc(CN3CCC(C(Oc4ccc(Cl)cn4)c4ccc(C(F)(F)F)cc4)CC3)cc2)n1 (stereo not drawn) [Compound 435] | 100 | 100 |
| O=C(Nc1ccccn1)OC(c1ccc(C(F)(F)F)cc1)C1CCN(Cc2ccc(Oc3ccccn3)cc2)CC1 (stereo not drawn) [Compound 436] | 50 | 100 |
